Results published in EP4733303A1, “MUSCARINIC M4 RECEPTOR AGONIST AND USE THEREOF” (Haisco Pharmaceutical Group Co., Ltd., priority 2023, dated 2024).

Molecular target: T1, M4 receptor (Homo sapiens, UniProt P08173)
T1 construct: expressed in transfected cells; host or cells: CHO (M4-CHO cells)
T1 sequence (P08173 1-479): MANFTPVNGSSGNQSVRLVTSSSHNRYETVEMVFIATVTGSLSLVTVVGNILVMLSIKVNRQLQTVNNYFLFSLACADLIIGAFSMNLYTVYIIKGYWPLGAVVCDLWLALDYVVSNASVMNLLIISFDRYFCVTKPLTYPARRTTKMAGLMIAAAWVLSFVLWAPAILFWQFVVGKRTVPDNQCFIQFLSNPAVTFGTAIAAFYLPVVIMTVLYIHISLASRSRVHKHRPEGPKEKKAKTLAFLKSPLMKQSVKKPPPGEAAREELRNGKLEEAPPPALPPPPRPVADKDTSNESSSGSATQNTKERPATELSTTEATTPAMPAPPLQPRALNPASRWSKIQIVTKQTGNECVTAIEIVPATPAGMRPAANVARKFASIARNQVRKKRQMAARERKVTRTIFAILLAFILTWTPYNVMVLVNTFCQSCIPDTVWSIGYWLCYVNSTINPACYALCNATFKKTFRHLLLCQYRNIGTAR
Assay: PAM agonistic activity of compound on M4 receptor (FLIPR Calcium 6 assay in M4-CHO cells)
Format: cell-based
Conditions: with acetylcholine (Ach), final concentration 3 nM
Procedure: • 1). Cell plating: M4-CHO cells were digested, collected, and resuspended. After cell counting, the cell suspension was seeded into a 384-well cell plate at a density of: 1.2 × 10^4 cells/25 µL/well. The cell plate was then cultured in a 37°C, 5% CO2 incubator for about 16-20 h. • 2). Day 2: Assay Buffer was prepared according to the instructions of the FLIPR Calcium 6 Assay Kit. Component A (20×) was thawed to room temperature and diluted with the Assay Buffer to prepare a loading buffer (1×), which was stored at room temperature until use. • 3). The culture medium was removed from the cell plate. 40 µL of the loading buffer (1×) was quickly added to each well. The cell plate was then centrifuged and incubated at 37°C in the dark for 120 min. • 4). Working solutions of the positive control compound and the test compounds were prepared. An acetylcholine (Ach) agonist compound solution was prepared (final concentration: 3 nM). The PAM compound and the Ach agonist solution were mixed at a 1 : 1 ratio, and the mixture was transferred into a 384-well compound source plate at 20 µL per well. • 5). The cell plate, the compound source plate, and the pipette tips were placed into the corresponding positions within the FLIPR instrument. 10 µL of the diluted compound from step 4 was added into each experimental well using the FLIPR Tetra. Data was collected at the wavelength of 515 nm-575 nm. • 6). The signal values were plotted against the compound concentrations. Nonlinear regression analysis was performed using GraphPad Prism software for curve fitting and EC50 calculation.
The experimental results are shown in Table 1, where A represents EC50 < […]; B represents 100 nM ≤ EC50 < 500 nM, and C represents 500 nM ≤ EC50. Table 1. Agonistic activity of compounds on M4 receptor

| Compound | EC50 [nM] |
| --- | --- |
| Cc1cc(C)c2c(n1)CN(C(=O)CC1CN(c3ccc4c(c3)C(F)C(F)C4)C1)C2 (racemic) [Compound 12, isomer 1] | < 100 |
| Cc1cc(C)c2c(n1)CN(C(=O)CC1CN(c3ccc4c(c3)C(F)C(F)C4)C1)C2 (racemic) [Compound 12, isomer 2] | < 100 |
| Cc1cc(C2CCOC2)nc2c1CN(C(=O)CC1CN(c3ccnc(C(F)(F)F)c3)C1)C2 (single isomer, unassigned) [Compound 152] | < 100 |
| Cc1cc(C2CCOC2)nc2c1CN(C(=O)CC1CN(c3ccnc(C(F)(F)F)c3)C1)C2 (single isomer, unassigned) [Compound 153] | < 100 |
| Cc1cc(C2CCOC2)nc2c1CN(C(=O)CC1CN(c3ccnc(OC4CC(F)(F)C4)c3)C1)C2 (single isomer, unassigned) [Compound 154] | < 100 |
| Cc1cc(C2CCOC2)nc2c1CN(C(=O)CC1CN(c3ccnc(OC4CC(F)(F)C4)c3)C1)C2 (single isomer, unassigned) [Compound 155] | < 100 |
| Cc1cc(-c2cnn(C)c2)nc2c1CN(C(=O)CC1CN(c3ccnc(OC4CC(F)C4)c3)C1)C2 (single isomer, unassigned) [Compound 156] | < 100 |
| Cc1ccn(-c2cc(N3CC(CC(=O)N4Cc5nc(C6CCOC6)cc(C)c5C4)C3)ccn2)n1 (single isomer, unassigned) [Compound 185] | < 100 |
| Cc1ccn(-c2cc(N3CC(CC(=O)N4Cc5nc(C6CCOC6)cc(C)c5C4)C3)ccn2)n1 (single isomer, unassigned) [Compound 186] | < 100 |
| Cc1cc(C2CCOC2)nc2c1CN(C(=O)CC1CN(c3ccnc(-n4ccc(F)n4)c3)C1)C2 (single isomer, unassigned) [Compound 187] | < 100 |
| Cc1cc(C)c2c(n1)CN(C(=O)CC1CN(c3ccnc(-c4ccsc4)c3)C1)C2 [Compound 1] | < 100 |
| Cc1cc(C)c2c(n1)CN(C(=O)CC1CN(c3ccnc(-c4cnn(C(F)F)c4)c3)C1)C2 [Compound 5] | < 100 |
| Cc1cc(C)c2c(n1)CN(C(=O)CC1CN(c3ccnc(-c4cc(C(F)(F)F)nn4C)c3)C1)C2 [Compound 6] | < 100 |
| Cc1cc(C)c2c(n1)CN(C(=O)CC1CN(c3ccnc(-c4cnn(C)c4)c3)C1)C2 [Compound 7] | < 100 |
| Cc1cc(C)c2c(n1)CN(C(=O)CC1CN(c3ccnc(-c4cc(C(F)(F)F)n(C)n4)c3)C1)C2 [Compound 14] | < 100 |
| Cc1cc(C)c2c(n1)CN(C(=O)CC1CN(c3ccnc(-c4ccnc(C(F)(F)F)c4)c3)C1)C2 [Compound 16] | < 100 |
| Cc1cc(C)c2c(n1)CN(C(=O)CC1CN(c3ccnc(-c4cnsc4)c3)C1)C2 [Compound 21] | < 100 |
| Cc1cc(C)c2c(n1)CN(C(=O)CC1CN(c3ccnc(-c4ccnn4C)c3)C1)C2 [Compound 22] | < 100 |
| Cc1csc(-c2cc(N3CC(CC(=O)N4Cc5nc(C)cc(C)c5C4)C3)ccn2)c1 [Compound 23] | < 100 |
| Cc1cc(C)c2c(n1)CN(C(=O)CC1CN(c3ccnc(NC(=O)C4CC4)c3)C1)C2 [Compound 24] | < 100 |

| Compound | EC50 [nM] |
| --- | --- |
| Cc1cc(C)c2c(n1)CN(C(=O)CC1CN(c3ccnc(OC4CC(F)(F)C4)c3)C1)C2 [Compound 25] | < 100 |
| Cc1cc(C)c2c(n1)CN(C(=O)CC1CN(c3ccnc(-n4nccc4C)c3)C1)C2 [Compound 26] | < 100 |
| Cc1cc(C)c2c(n1)CN(C(=O)CC1CN(c3ccnc(-c4cnoc4)c3)C1)C2 [Compound 27] | < 100 |
| Cc1cc(C)c2c(n1)CN(C(=O)CC1CN(c3ccnc(-n4nc(C)cc4C)c3)C1)C2 [Compound 30] | < 100 |
| Cc1cc(C)c2c(n1)CN(C(=O)CC1CN(c3ccnc(Oc4cnn(C(F)F)c4)c3)C1)C2 [Compound 37] | < 100 |
| Cc1cc(C)c2c(n1)CN(C(=O)CC1CN(c3ccnc(C(=O)NC4CC4)c3)C1)C2 [Compound 38] | < 100 |
| Cc1cc(C)c2c(n1)CN(C(=O)CC1CN(c3ccnc(-c4noc(C(F)(F)F)n4)c3)C1)C2 [Compound 39] | < 100 |
| Cc1cnn(-c2cc(N3CC(CC(=O)N4Cc5nc(C)cc(C)c5C4)C3)ccn2)c1 [Compound 40] | < 100 |
| Cc1cc(C)c2c(n1)CN(C(=O)CC1CN(c3ccnc(-n4c(C)nnc4C(F)(F)F)c3)C1)C2 [Compound 43] | < 100 |
| Cc1cc(C)c2c(n1)CN(C(=O)CC1CN(c3ccnc(-c4nc(C(F)(F)F)nn4C)c3)C1)C2 [Compound 44] | < 100 |
| Cc1cc(C)c2c(n1)CN(C(=O)CC1CN(c3ccnc(-n4cc(C(F)(F)F)nc4C)c3)C1)C2 [Compound 46] | < 100 |
| Cc1cc(C)c2c(n1)CN(C(=O)CC1CN(c3ccnc(-n4cnc(C(F)(F)F)n4)c3)C1)C2 [Compound 47] | < 100 |
| Cc1cc(C)c2c(n1)CN(C(=O)CC1CN(c3cc(-n4ccc(C)n4)ncn3)C1)C2 [Compound 48] | < 100 |
| Cc1cc(C)c2c(n1)CN(C(=O)CC1CN(c3ccnc(OC4CC4)c3)C1)C2 [Compound 49] | < 100 |
| Cc1ccn(-c2cc(N3CC(CC(=O)N4Cc5nc(C)cc(C)c5C4)C3)ccn2)c1 [Compound 50] | < 100 |
| Cc1cc(C)c2c(n1)CN(C(=O)CC1CN(c3ccnc(O[C@@H]4CCOC4)c3)C1)C2 [Compound 51] | < 100 |
| Cc1cc(C)c2c(n1)CN(C(=O)CC1CN(c3ccnc(O[C@H]4CCOC4)c3)C1)C2 [Compound 52] | < 100 |
| Cc1cc(C)c2c(n1)CN(C(=O)CC1CN(c3ccnc(Oc4cnn(C)c4)c3)C1)C2 [Compound 53] | < 100 |
| Cc1cc(C)c2c(n1)CN(C(=O)CC1CN(c3ccnc(-n4cnc(C)n4)c3)C1)C2 [Compound 54] | < 100 |
| Cc1cc(C)c2c(n1)CN(C(=O)CC1CN(c3ccnc(-n4cc(C)c(C)n4)c3)C1)C2 [Compound 55] | < 100 |

| Compound | EC50 [nM] |
| --- | --- |
| Cc1cc(C)c2c(n1)CN(C(=O)CC1CN(c3ccnc(-n4cccn4)c3)C1)C2 [Compound 56] | < 100 |
| Cc1cc(C)c2c(n1)CN(C(=O)CC1CN(c3ccnc(-n4cncn4)c3)C1)C2 [Compound 58] | < 100 |
| Cc1nc2c(c(N3CCC3)n1)CN(C(=O)CC1CN(c3ccnc(-n4nccc4C)c3)C1)C2 [Compound 62] | < 100 |
| Cc1cc(C)c2c(n1)CN(C(=O)CC1CN(c3ccnc(-c4ccc5ccnn5c4)c3)C1)C2 [Compound 63] | < 100 |
| Cc1cc(C)c2c(n1)CN(C(=O)CC1CN(c3ccnc(NC4CC(F)(F)C4)c3)C1)C2 [Compound 67] | < 100 |
| Cc1cc(C)c2c(n1)CN(C(=O)CC1CN(c3ccnc(-n4cc(C)nc4C)c3)C1)C2 [Compound 75] | < 100 |
| Cc1cc(C)c2c(n1)CN(C(=O)CC1CN(c3ccnc(-n4ccc(F)n4)c3)C1)C2 [Compound 76] | < 100 |
| Cc1coc(-c2cc(N3CC(CC(=O)N4Cc5nc(C)cc(C)c5C4)C3)ccn2)n1 [Compound 78] | < 100 |
| Cc1cc(CO)nc2c1CN(C(=O)CC1CN(c3ccnc(OC4CC(F)(F)C4)c3)C1)C2 [Compound 81] | < 100 |
| Cc1cc(C)c2c(n1)CN(C(=O)CC1CN(c3ccnc(OC4CCC(F)(F)C4)c3)C1)C2 (stereo not drawn) [Compound 83] | < 100 |
| Cc1ccn(-c2cc(N3CC(CC(=O)N4Cc5nc(CO)cc(C)c5C4)C3)ccn2)n1 [Compound 84] | < 100 |
| Cc1ccn(-c2cc(N3CC(CC(=O)N4Cc5nc(COC6COC6)cc(C)c5C4)C3)ccn2)n1 [Compound 85] | < 100 |
| Cc1ccn(-c2cc(N3CC(CC(=O)N4Cc5nc(C)c6c(c5C4)CCC6)C3)ccn2)n1 [Compound 87] | < 100 |
| Cc1ccn(-c2cc(N3CC(CC(=O)N4Cc5nc(C)nc(N(C)C)c5C4)C3)ccn2)n1 [Compound 90] | < 100 |
| Cc1ccn(-c2cc(N3CC(CC(=O)N4Cc5nc(COC6CC6)cc(C)c5C4)C3)ccn2)n1 [Compound 91] | < 100 |
| Cc1ccn(-c2cc(N3CC(CC(=O)N4Cc5nc6c(c(C)c5C4)CCC6)C3)ncn2)n1 [Compound 92] | < 100 |
| Cc1c2c(nc3c1CN(C(=O)CC1CN(c4ccnc(OC5CCOC5)c4)C1)C3)CCC2 (stereo not drawn) [Compound 93] | < 100 |
| Cc1c2c(nc3c1CN(C(=O)CC1CN(c4ccc5c(c4)CCC5=O)C1)C3)CCC2 [Compound 94] | < 100 |
| Cc1c2c(nc3c1CN(C(=O)CC1CN(c4ccnc(-n5cccn5)c4)C1)C3)CCC2 [Compound 95] | < 100 |
| Cc1cc(C)c2c(n1)CN(C(=O)CC1CN(c3ccnc(-c4nc(C)nn4C)c3)C1)C2 [Compound 96] | < 100 |
